Measured values reported in article PMC6522912, “Evaluation of the published kinase inhibitor set to identify multiple inhibitors of bacterial ATP-dependent mur ligases” (Journal of Enzyme Inhibition and Medicinal Chemistry, 2019).

Experiments:
[1] = molecular target: E. coli MurC (Escherichia coli, UniProt P17952); test: Malachite green inhibition assay, MurC; assay type: biochemical; conditions: for RA (%) MurC: Table S3, aza stilbene compounds; for remaining activity at 100 µM: 0.25 h, Table S1, PKIS screening, read-out: RA [%] at 100 µM MurC
E. coli MurC, sequence (P17952 whole entry): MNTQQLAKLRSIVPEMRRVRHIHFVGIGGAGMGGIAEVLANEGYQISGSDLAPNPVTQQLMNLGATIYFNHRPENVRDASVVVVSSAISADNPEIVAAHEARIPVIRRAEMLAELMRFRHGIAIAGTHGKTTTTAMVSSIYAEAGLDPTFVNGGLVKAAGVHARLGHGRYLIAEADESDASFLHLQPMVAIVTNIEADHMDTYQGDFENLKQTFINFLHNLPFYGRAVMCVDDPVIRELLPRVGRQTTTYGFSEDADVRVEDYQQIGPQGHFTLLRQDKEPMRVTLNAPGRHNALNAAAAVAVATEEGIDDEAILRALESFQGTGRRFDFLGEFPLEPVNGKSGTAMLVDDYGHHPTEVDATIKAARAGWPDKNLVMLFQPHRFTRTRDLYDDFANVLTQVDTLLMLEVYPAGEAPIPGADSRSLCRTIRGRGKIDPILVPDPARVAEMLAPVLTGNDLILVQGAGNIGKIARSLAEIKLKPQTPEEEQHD
Description: (§1) Inhibition of the Mur ligases was determined using the malachite green assay, with slight modifications.
(§2) In all cases, the final concentration of DMSO was 5% (v/v). After incubation for 15 min at 37 °C, the enzyme reaction was terminated by addition of 100 µM Biomol green reagent, and the absorbance was measured at 650 nm after 5 min. All of the experiments were run in duplicate. Residual activities were calculated with respect to control assays without the tested compounds, but with the 5% DMSO carrier.
(§3) The published kinase inhibitor set compounds were evaluated for inhibition of MurC, D and F ligases from E. coli using the Malachite green assay, which detects orthophosphate generated during enzymatic reactions. To avoid non-specific inhibition due to aggregate formation, all of the compounds were tested in the presence of detergent (0.005% Triton-X114). The data are presented as the residual activities of these Mur ligases in the presence of 100 µM of each test compound (Supporting Information Table S1). […] Additionally, regarding the data of profiled compounds in large panels of human kinase assays[41]

[2] = molecular target: E. coli MurD (Escherichia coli, UniProt P14900); test: biochemical; conditions: for remaining activity at 100 µM: 0.25 h, Table S1, PKIS screening, read-out: RA [%] at 100 µM MurD
E. coli MurD, sequence (P14900 whole entry): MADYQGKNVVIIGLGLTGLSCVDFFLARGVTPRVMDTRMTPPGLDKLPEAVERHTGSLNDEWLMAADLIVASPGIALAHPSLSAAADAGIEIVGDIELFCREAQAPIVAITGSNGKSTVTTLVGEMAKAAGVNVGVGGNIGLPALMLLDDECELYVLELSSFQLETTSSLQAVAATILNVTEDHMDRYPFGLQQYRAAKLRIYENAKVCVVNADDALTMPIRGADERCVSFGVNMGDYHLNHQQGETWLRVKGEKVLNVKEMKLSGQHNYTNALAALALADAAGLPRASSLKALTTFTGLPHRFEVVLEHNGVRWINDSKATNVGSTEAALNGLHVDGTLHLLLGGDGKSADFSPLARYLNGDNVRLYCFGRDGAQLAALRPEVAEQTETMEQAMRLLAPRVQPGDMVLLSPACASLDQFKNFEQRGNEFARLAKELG
Description: as §1, §2
The published kinase inhibitor set compounds were evaluated for inhibition of MurC, D and F ligases from E. coli using the Malachite green assay, which detects orthophosphate generated during enzymatic reactions. To avoid non-specific inhibition due to aggregate formation, all of the compounds were tested in the presence of detergent (0.005% Triton-X114). The data are presented as the residual activities of these Mur ligases in the presence of 100 µM of each test compound (Supporting Information Table S1).

[3] = molecular target: E. coli MurF (Escherichia coli, UniProt P11880); test: biochemical; conditions: for RA (%) MurF: Table S3, aza stilbene compounds; for remaining activity at 100 µM: 0.25 h, Table S1, PKIS screening, read-out: RA [%] at 100 µM MurF
E. coli MurF, sequence (P11880 whole entry): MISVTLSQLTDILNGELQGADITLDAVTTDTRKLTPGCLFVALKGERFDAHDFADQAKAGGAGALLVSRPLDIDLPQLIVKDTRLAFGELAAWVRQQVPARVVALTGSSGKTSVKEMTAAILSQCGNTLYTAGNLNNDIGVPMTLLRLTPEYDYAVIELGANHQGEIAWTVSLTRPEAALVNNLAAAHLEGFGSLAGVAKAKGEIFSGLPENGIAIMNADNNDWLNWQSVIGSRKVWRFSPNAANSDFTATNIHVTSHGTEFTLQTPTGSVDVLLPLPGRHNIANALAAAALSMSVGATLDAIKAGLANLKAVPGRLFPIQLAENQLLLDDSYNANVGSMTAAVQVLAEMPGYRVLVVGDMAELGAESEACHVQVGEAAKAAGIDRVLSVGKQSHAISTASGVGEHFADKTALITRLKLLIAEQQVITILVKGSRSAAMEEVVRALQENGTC
Description: as §1, §2, §3

| SMILES | RA (%) MurC [1] [%] | RA (%) MurD [2] [%] | RA (%) MurF [3] [%] | remaining activity at 100 µM [1] [%] | remaining activity at 100 µM [2] [%] | remaining activity at 100 µM [3] [%] |
| --- | --- | --- | --- | --- | --- | --- |
| Cc1cc(-c2ccccn2)cc(C)c1C=Cc1cncc(-c2nn[nH]n2)c1 [Compound 6] | 59 | 83 | 76 |  |  |  |
| Cc1cc(O)cc(C)c1C=Cc1cncc(-c2nn[nH]n2)c1 [Compound 7] | 70 | 91 | 90 |  |  |  |
| CNC(=O)c1cncc(C=Cc2ccccc2C)c1 [Compound 8] | 100 | 91 | 85 |  |  |  |
| CNC(=O)c1cncc(C=Cc2c(C)cccc2C)c1 [Compound 9] | 85 | 83 | 54 |  |  |  |
| CNC(=O)c1cncc(C=Cc2c(Cl)cccc2Cl)c1 [Compound 10] | 81 | 80 | 77 |  |  |  |
| CNC(=O)c1cncc(C=Cc2ccccc2Cl)c1 [Compound 11] | 68 | 87 | 90 |  |  |  |
| CCc1cccc(CC)c1C=Cc1cncc(C(=O)NC)c1 [Compound 12] | 67 | 74 | 76 |  |  |  |
| CNC(=O)Oc1cc(C)c(C=Cc2cncc(C(=O)NC)c2)c(C)c1 [Compound 13] | 68 | 69 | 87 |  |  |  |
| Cc1cc(O)cc(C)c1C=Cc1cncc(C(N)=O)c1 [Compound 14] | 89 | 89 | 75 |  |  |  |
| COC(=O)c1cncc(C=Cc2c(C)cc(O)cc2C)c1 [Compound 15] | 98 | 69 | 81 |  |  |  |
| Cc1cc(O)cc(C)c1C=Cc1cncc(C(=O)OC(C)(C)C)c1 [Compound 16] | 75 | 96 | 69 |  |  |  |
| COc1ccc2ncnc(Nc3ccc(OCc4ccccc4)cc3)c2c1 [GI261520A] |  |  |  | 58 | 31 | 81 |
| O=C1Nc2ccccc2/C1=C1\CCc2cc(O)ccc21 [GR105659X] |  |  |  | 85 | 100 | 100 |
| c1ccc(Cc2nc3ccc(Nc4ncnc5ccccc45)cc3[nH]2)cc1 [GR269666A] |  |  |  | 77 | 83 | 96 |
| CC1=C(C(=O)Nc2ccc3[nH]ncc3c2)C(c2ccc(F)cc2)NC(=O)N1 (stereo not shown) [GSK180736A] |  |  |  | 80 | 79 | 85 |
| CN(C)C(=O)O[C@H]1CN[C@H](C#Cc2cc3ncnc(Nc4ccc(OCc5cccc(F)c5)c(Cl)c4)c3s2)C1 [GSK182497A] |  |  |  | 43 | 65 | 76 |
| CCNC(=O)O[C@H]1CN[C@H](C#Cc2cc3ncnc(Nc4ccc(OCc5cccc(F)c5)c(Cl)c4)c3s2)C1 [GSK192082A] |  |  |  | 39 | 70 | 50 |
| O=C(O[C@H]1CN[C@H](C#Cc2cc3ncnc(Nc4ccc5c(cnn5Cc5ccccc5)c4)c3s2)C1)N1CCOCC1 [GSK200398A] |  |  |  | 52 | 61 | 60 |
| COc1cc2ncn(-c3cc(OCCc4ccccc4)c(C(N)=O)s3)c2cc1OC [GSK204925A] |  |  |  | 56 | 68 | 63 |
| COc1cc2ncn(-c3cc(O[C@@H](C)c4ccccc4Cl)c(C(N)=O)s3)c2cc1OC [GSK237700A] |  |  |  |  |  | 75 |
| CCn1c(-c2nonc2N)nc2cnc(Oc3cccc(NC(=O)c4ccc(OCCN5CCOCC5)cc4)c3)cc21 [GSK269962B] |  |  |  | 57 | 58 | 66 |
| CC1=C(C(=O)Nc2ccc3[nH]ncc3c2)C(c2ccc3ccccc3c2)CC(=O)N1 (stereo not shown) [GSK270822A] |  |  |  | 66 | 81 | 68 |
| CC1=C(C(=O)Nc2ccc3[nH]ncc3c2)C(c2ccc(Cl)c(Cl)c2)CC(=O)N1 (stereo not shown) [GSK299115A] |  |  |  | 78 | 96 | 68 |
| CS(=O)(=O)CCNCc1cc(-c2cc3c(Nc4ccc(OCc5cccc(F)c5)c(Cl)c4)ncnc3s2)cs1 [GSK300014A] |  |  |  | 88 | 91 | 95 |
